“And” between values parts separate entries of the source, which are not always exact repeats. Equal values may be shown once. Read-outs that look alike come from different tables or passages of the source.
Legend:
[1] = tested on: SARS-CoV-2^WK-521; test: microbe, parasite or virus in culture; format: cell-based
[2] = tested on: HeLa-ACE2-TMPRSS2 cells; test: Intracellular concentrations of compounds (LC/MS), HeLa-ACE2-TMPRSS2 cells; settings: for Intracellular amount, avg / Intracellular amount, individual: 6 h; for intracellular compound, /1x10^6: calculated value per cell count; for intracellular compound, calculated value /20uL: from AUC against pmol standard curve
[3] = molecular target: T1, human calpain (Homo sapiens, UniProt P07384); test: Human calpain activity assay; format: biochemical; settings: triplicate, read-out: %inhibition against humanCalpain
T1 sequence (P07384 2-714): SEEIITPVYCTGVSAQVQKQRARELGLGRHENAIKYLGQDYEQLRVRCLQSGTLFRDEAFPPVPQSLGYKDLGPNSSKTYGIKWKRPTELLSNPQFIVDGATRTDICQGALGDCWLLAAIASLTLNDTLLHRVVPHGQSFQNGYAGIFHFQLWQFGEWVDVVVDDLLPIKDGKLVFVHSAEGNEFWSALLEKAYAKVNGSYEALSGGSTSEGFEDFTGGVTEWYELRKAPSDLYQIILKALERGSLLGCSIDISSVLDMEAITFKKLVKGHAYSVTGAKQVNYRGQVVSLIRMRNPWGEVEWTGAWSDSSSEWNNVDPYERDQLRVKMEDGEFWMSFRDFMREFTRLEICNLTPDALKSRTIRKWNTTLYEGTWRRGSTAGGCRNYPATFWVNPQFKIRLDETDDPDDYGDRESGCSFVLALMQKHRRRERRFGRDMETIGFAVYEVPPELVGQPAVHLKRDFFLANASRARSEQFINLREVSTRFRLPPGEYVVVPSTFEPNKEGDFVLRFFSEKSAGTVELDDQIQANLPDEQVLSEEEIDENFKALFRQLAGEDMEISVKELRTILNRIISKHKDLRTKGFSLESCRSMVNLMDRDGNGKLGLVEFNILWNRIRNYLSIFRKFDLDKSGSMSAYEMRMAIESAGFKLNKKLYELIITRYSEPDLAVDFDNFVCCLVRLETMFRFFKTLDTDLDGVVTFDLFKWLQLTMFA
T1 sequence (P04632 1-268 partner): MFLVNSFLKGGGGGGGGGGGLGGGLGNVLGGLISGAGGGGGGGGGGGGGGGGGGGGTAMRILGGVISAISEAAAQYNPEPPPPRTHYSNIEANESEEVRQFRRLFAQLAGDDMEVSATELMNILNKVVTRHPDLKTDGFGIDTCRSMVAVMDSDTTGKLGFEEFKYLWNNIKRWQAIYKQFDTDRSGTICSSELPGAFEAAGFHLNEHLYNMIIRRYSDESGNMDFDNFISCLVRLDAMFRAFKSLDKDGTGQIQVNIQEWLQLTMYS

[4] = tested on: SARS-CoV-2 UT-NCD1757-1N/ο BA.2.75; test: microbe, parasite or virus in culture; format: cell-based
[5] = tested on: SARS-CoV-2 TKYTS14631/ο BA.5; test: microbe, parasite or virus in culture; format: cell-based
[6] = tested on: SARS-CoV-2^WK521 in A549-ACE2-TMPRSS2 cells; test: Antiviral assay, A549-ACE2-TMPRSS2 cells, WK521; format: cell-based
[7] = tested on: SARS-CoV-2^WK521 in HeLa-ACE2-TMPRSS2 cells; test: Antiviral assay, HeLa-ACE2-TMPRSS2 cells, WK521; format: cell-based
[8] = tested on: SARS-CoV-2 TKYX00012/ο BA.1; test: microbe, parasite or virus in culture; format: cell-based
[9] = Hela ACE2 TMPRSS2, drug 10, duplicates
[10] = Hela ACE2 TMPRSS2, drug 50, duplicates
[11] = Hela ACE2 TMPRSS2, drug 100, duplicates

## CC(C)(C)[C@H](NC(=O)C(F)(F)F)C(=O)N1C[C@H]2[C@@H]([C@H]1C(=O)N[C@H](C#N)C[C@@H]1CCNC1=O)C2(C)C [Nirmatrelvir, reference compound]
[1]
  SARS-CoV2 RNA VeroE6 cell-based assay EC95: 7.81 ± 1.55 µM
[1]; Severe acute respiratory syndrome coronavirus 2, Vero C1008, read-out: EC50, Average
  EC50: 942 nM
[1]; Severe acute respiratory syndrome coronavirus 2, Vero C1008, read-out: EC50, VeroE6 + 2 µM CP100356
  EC50: 25 nM
[1]; Severe acute respiratory syndrome coronavirus 2, Vero C1008, read-out: EC50, VeroE6 with CP100356, Average
  EC50: 25 nM
[1]; Severe acute respiratory syndrome coronavirus 2, Vero C1008, read-out: EC50, VeroE6 with CP100356, individual assays
  EC50: 22 nM
[1]; Severe acute respiratory syndrome coronavirus 2, Vero C1008, read-out: SARS-CoV2 RNA VeroE6 cell-based assay EC50
  EC50: 940 ± 210 nM
[1]; read-out: EC50, Average
  EC50: 1020 nM
[1]; read-out: EC50, VeroE6 with CP100356, individual assays
  EC50: 27 nM
[1]; read-out: EC50, individual assays
  EC50: 1090 nM and 700 nM and 1150 nM and 830 nM and 1470 nM
[2]; Hela ACE2 TMPRSS2, 10uM
  Intracellular amount, avg: 0.5065 pmol(total)
  Intracellular amount, individual: 0.5088 pmol(total) and 0.5041 pmol(total)
[2]; Hela ACE2 TMPRSS2, 50uM
  Intracellular amount, avg: 1.799 pmol(total)
  Intracellular amount, individual: 1.518 pmol(total) and 2.08 pmol(total)
[2]; Hela ACE2 TMPRSS2, 100uM
  Intracellular amount, avg: 3.821 pmol(total)
  Intracellular amount, individual: 3.049 pmol(total) and 4.592 pmol(total)
[2]; [9]
  intracellular compound, pmol(total): 0.5088 pmol and 0.5041 pmol
  intracellular compound, /1x10^6: 0.2035 /1x10^6 and 0.2016 /1x10^6
  intracellular compound, calculated value /20uL: 0.53 /20uL and 0.52 /20uL
[2]; [10]
  intracellular compound, pmol(total): 1.518 pmol and 2.08 pmol
  intracellular compound, /1x10^6: 0.6073 /1x10^6 and 0.832 /1x10^6
  intracellular compound, calculated value /20uL: 1.70 /20uL and 1.83 /20uL
[2]; [11]
  intracellular compound, pmol(total): 3.049 pmol and 4.592 pmol
  intracellular compound, /1x10^6: 1.22 /1x10^6 and 1.837 /1x10^6
  intracellular compound, calculated value /20uL: 3.90 /20uL and 4.04 /20uL
[3]; 0.000128 µM
  inhibition at 0.000128 µM: 0%
[3]; 0.00064 µM
  inhibition at 0.00064 µM: 0%
[3]; 0.0032 µM
  inhibition at 0.0032 µM: 0%
[3]; 0.08 µM
  inhibition at 0.08 µM: 0%
[3]; 0.4 µM
  inhibition at 0.4 µM: 0%
[4]; Severe acute respiratory syndrome coronavirus 2, Vero C1008, read-out: EC50 against UT-NCD1757-1N/ο BA.2.75
  EC50: 967 ± 135 nM
[4]; Severe acute respiratory syndrome coronavirus 2, Vero C1008, read-out: EC50 ο BA2.75, Average
  EC50: 967 nM
[4]; Severe acute respiratory syndrome coronavirus 2, Vero C1008, read-out: EC50 ο BA2.75, individual assays
  EC50: 830 nM
[4]; read-out: EC50 ο BA2.75, individual assays
  EC50: 970 nM and 1100 nM
[5]; Severe acute respiratory syndrome coronavirus 2, Vero C1008, read-out: EC50 against TKYTS14631/ο BA.5
  EC50: 1080 ± 150 nM
[5]; Severe acute respiratory syndrome coronavirus 2, Vero C1008, read-out: EC50 ο BA5, Average
  EC50: 1080 nM
[5]; Severe acute respiratory syndrome coronavirus 2, Vero C1008, read-out: EC50 ο BA5, individual assays
  EC50: 999 nM
[5]; read-out: EC50 ο BA5, individual assays
  EC50: 988 nM and 1250 nM
[6]; Severe acute respiratory syndrome coronavirus 2, SARS-CoV-2^WK521, read-out: EC50, A549-ACE2-TMPRSS2
  EC50: 17 ± 3 nM
[6]; Severe acute respiratory syndrome coronavirus 2, source data, read-out: EC50, A549-AEC2-TMPRSS2, Average
  EC50: 17.4 nM
[6]; Severe acute respiratory syndrome coronavirus 2, source data, read-out: EC50, A549-AEC2-TMPRSS2, individual assays
  EC50: 20 nM
[6]; source data, read-out: EC50, A549-AEC2-TMPRSS2, individual assays
  EC50: 17.4 nM and 14.8 nM
[7]; Severe acute respiratory syndrome coronavirus 2, SARS-CoV-2^WK521, read-out: EC50, HeLa-ACE2-TMPRSS2
  EC50: 240 ± 50 nM
[7]; Severe acute respiratory syndrome coronavirus 2, read-out: EC50, HeLa-AEC2-TMPRSS2, individual assays, source data
  EC50: 300 nM
[7]; Severe acute respiratory syndrome coronavirus 2, source data, read-out: EC50, HeLa-AEC2-TMPRSS2, Average
  EC50: 237 nM
[7]; read-out: EC50, HeLa-AEC2-TMPRSS2, individual assays, source data
  EC50: 200 nM and 210 nM
[8]; Severe acute respiratory syndrome coronavirus 2, Vero C1008, read-out: EC50 against KTKYX00012/ο BA.1
  EC50: 1050 ± 61 nM
[8]; Severe acute respiratory syndrome coronavirus 2, Vero C1008, read-out: EC50 ο BA1, Average
  EC50: 1050 nM
[8]; Severe acute respiratory syndrome coronavirus 2, Vero C1008, read-out: EC50 ο BA1, individual assays
  EC50: 1100 nM
[8]; read-out: EC50 ο BA1, individual assays
  EC50: 1060 nM and 980 nM

Reference: article PMC9958325 (Nature Communications, 2023)
